# Test results taken from US3936463A, “Benzomorphanes” (priority 1972, dated 1976).
# Experiments:
# Morphine-dependent rats [1] = assay: Morphine replacement action (elimination of withdrawal symptoms) in morphine-dependent rats; format: in vivo, rat; conditions: grade, scale not defined
# Description: (§1) The numbering of the compounds is the same as the numbering of the preparative examples. […] The ED50 and LD50 were calculated relative to the base.
# rat tails = assay: animal or person; conditions: for ED50: Rattus norvegicus, sc, read-out: Analgesic action in heat radiation test on rat tails, ED 50; for Therapeutic index LD 50 / ED 50 / Analgesic action in heat radiation test on rat tails, ED 50: rats, s.c.; for Therapeutic index LD 50 / ED 50: calculated from LD 50 and ED 50; for Analgesic action in heat radiation test on rat tails, ED 50: calculated relative to the base
# Description: as §1
# Morphine-dependent rats [2] = assay: Morphine-antagonistic action (provocation of withdrawal symptoms) in morphine-dependent rats; format: in vivo, rat; conditions: grade, scale not defined
# Description: as §1
# [3] = tested on: Morphine-dependent monkeys; assay: Morphine-replacement action (elimination of withdrawal symptoms) in morphine-dependent monkeys; format: in vivo, monkey; conditions: grade, scale not defined
# Description: as §1
# in vivo = conditions: rat, sc
# Description: as §1
# [4] = tested on: Morphine-dependent monkeys; assay: Morphine-antagonistic action (provocation of withdrawal symptoms) in morphine-dependent monkeys; format: in vivo, monkey; conditions: grade, scale not defined
# Description: as §1
Compound,Morphine replacement action (elimination of withdrawal symptoms) (Morphine-dependent rats [1]),ED50 (rat tails) [mg/kg],Therapeutic index LD 50 / ED 50 (rat tails),Morphine-antagonistic action (provocation of withdrawal symptoms) (Morphine-dependent rats [2]),Morphine-replacement action (elimination of withdrawal symptoms) [3],LD50 (in vivo) [mg/kg],Morphine-antagonistic action (provocation of withdrawal symptoms) [4],"Analgesic action in heat radiation test on rat tails, ED 50 (rat tails) [mg/kg]"
"COc1ccc2c3c1O[C@H]1[C@@H](O)C=C[C@H]4[C@@H](C2)N(C)CC[C@@]341 [Codeine, reference compound]",3,4.5,51,0,3,202,,
"CCC12CCN(CC3CC3)C(Cc3ccc(OCCCOC(C)=O)cc31)C2C (stereo not drawn) [Example 1, 2-Cyclopropylmethyl-5-ethyl-9-methyl-2'-[3-acetoxypropoxy-(1)]-6,7-benzomorphan]",0,0.42,838,2,0,352,1-2,
"CCC(=O)OCCCOc1ccc2c(c1)C1(CC)CCN(CC3CC3)C(C2)C1C (stereo not drawn) [Example 2a, 2-Cyclopropylmethyl-5-ethyl-9-methyl-2'-[3-propionyloxy-propoxy-(1)]-6,7-benzomorphan]",0,0.49,604,2,0,296,2,
"CCC12CCN(CC3CC3)C(Cc3ccc(OCCCOC(=O)C(C)C)cc31)C2C (stereo not drawn) [Example 2b, 2-Cyclopropylmethyl-5-ethyl-9-methyl-2'-[3-isobutyryloxy-propoxy-(1)]-6,7-benzomorphan]",0,1,~ 300,1,,~300,,
"CCC12CCN(CC3CC3)C(Cc3ccc(OCCCOC(=O)C(C)(C)C)cc31)C2C (stereo not drawn) [Example 4a, 2-Cyclopropylmethyl-5-ethyl-9-methyl-2'-[3-pivaloyloxy-propoxy-(1)]-6,7-benzomorphan]",0,0.97,> 515,1,,> 500,,
"C/C=C/C(=O)OCCCOc1ccc2c(c1)C1(CC)CCN(CC3CC3)C(C2)C1C (stereo not drawn) [Example 4d, 2-Cyclopropylmethyl-5-ethyl-9-methyl-2'-[3-crotonoyloxy-propoxy-(1)]-6,7-benzomorphan]",0,0.35,,2,,,3,
"CCC12CCN(CC3CC3)C(Cc3ccc(OCCCOC(=O)c4ccccc4)cc31)C2C (stereo not drawn) [Example 4e, 2-Cyclopropylmethyl-5-ethyl-9-methyl-2'-[3-benzoyloxy-propoxy-(1)]-6,7-benzomorphan]",,0.42,,,,,2,
"CCC12CCN(CC3CC3)C(Cc3ccc(OCC(C)COC(C)=O)cc31)C2C (stereo not drawn) [Example 6a, 2-Cyclopropylmethyl-5-ethyl-9-methyl-2'-[3-acetoxyisobutoxy-(1)]-6,7-benzomorphan]",,0.42,,,,,3,
"C/C=C/C(=O)OCC(C)COc1ccc2c(c1)C1(CC)CCN(CC3CC3)C(C2)C1C (stereo not drawn) [Example 6b, 2-Cyclopropylmethyl-5-ethyl-9-methyl-2'-[3-crotonoyloxyisobutoxy-(1)]-6,7-benzomorphan]",,0.31,,,,,3,
"CC(=O)OCCCOc1ccc2c(c1)C1(C)CCN(CC3CC3)C(C2)C1C (stereo not drawn) [Example 7, 2-Cyclopropylmethyl-5,9-dimethyl-2'-[3-acetoxypropoxy-(1)]-6,7-benzomorphan]",0,1.6,~ 258,1,,~400,,
"CCC(=O)OCCCOc1ccc2c(c1)C1(C)CCN(CC3CC3)C(C2)C1C (stereo not drawn) [Example 8, 2-Cyclopropylmethyl-5-9-dimethyl-2'-[3-propionyloxypropoxy-(1)]-6,7-benzomorphan]",1,1.6,~ 262,1,,~425,,
"CCC12CCN(CC3CC3)C(Cc3ccc(OCCCCOC(C)=O)cc31)C2C (stereo not drawn) [Example 9, 2-Cyclopropylmethyl-5-ethyl-9-methyl-2'-[4-acetoxybutoxy-(1)]-6,7-benzomorphan]",0-1,0.61,> 820,1,,> 500,,
CCC(=O)OCCCCOc1ccc2c(c1)C1(CC)CCN(CC3CC3)C(C2)C1C (stereo not drawn) [Example 10a],0,0.62,> 806,2,,> 500,,
"CCC12CCN(CC3CC3)C(Cc3ccc(OCCCCOC(=O)C(C)C)cc31)C2C (stereo not drawn) [Example 10b, 2-Cyclopropylmethyl-5-ethyl-9-methyl-2'-[4-isobutyryloxybutoxy-(1)]-6,7-benzomorphan]",0,0.42,"> 1,190",1,,> 500,,
"CCC12CCN(CC3CC3)C(Cc3ccc(OC(C)(C)COC(C)=O)cc31)C2C (stereo not drawn) [Example 11, 2-Cyclopropylmethyl-5-ethyl-9-methyl-[1-acetoxy-2-methyl-propoxy-(2)]-6,7-benzomorphan]",,0.47,,,,,1,
"CCC12CCN(CC3CC3)C(Cc3ccc(OCC(C)CCOC(C)=O)cc31)C2C (stereo not drawn) [Example 17, 2-Cyclopropylmethyl-5-ethyl-9-methyl-2'-[4-acetoxy-2-methylbutoxy-(1)]-6,7-benzomorphan]",,,,,,,2,0.96
CCC(=O)OCCC(C)COc1ccc2c(c1)C1(CC)CCN(CC3CC3)C(C2)C1C (stereo not drawn) [Example 18],,,,,,,2,1.36
CCC12CCN(CC3CC3)C(Cc3ccc(OCCCOC(=O)c4cccnc4)cc31)C2C (stereo not drawn) [Example 20],,1.2,,,,,1,
"CCC12CCN(CC3CC3)C(Cc3ccc(OCCCOC(=O)COc4ccccc4)cc31)C2C (stereo not drawn) [Example 21a, 2-Cyclopropylmethyl-5-ethyl-9-methyl-2'-[3-phenoxyacetoxypropoxy-(1)]-6,7-benzomorphan]",,1.2,,,,,2,
"CCOC(=O)N(C)C(=O)OCCCOc1ccc2c(c1)C1(CC)CCN(CC3CC3)C(C2)C1C (stereo not drawn) [Example 23, 2-cyclopropylmethyl-5-ethyl-9-methyl-2'-[3-N-ethoxycarbonyl-N-methyl-carbamoyloxypropoxy-(1)]-6,7-benzomorphan]",,1.2,,,,,2,
"CN1CC[C@]23c4c5ccc(O)c4O[C@H]2[C@@H](O)C=C[C@H]3[C@H]1C5 [Morphine, reference compound]",,,,,,,,1.78
"CC(C)=CCN1CCC2(C)c3cc(O)ccc3CC1C2C (stereo not drawn) [Pentazocine, reference compound]",1,4.8,29,2,,140,2,
"CCOC(=O)C1(c2ccccc2)CCN(C)CC1 [Pethidine, reference compound]",,5.7,20,,,113,,
